Entries after “also recorded” stand apart in the source; their conditions may differ.
How the values were obtained:
[1] = molecular target: T1, Purified rabbit 20S proteasome (Oryctolagus cuniculus, UniProt G1T4Q9); assay: Inhibition of chymotrypsin-like activity of purified 20S proteasome; assay type: biochemical; conditions: for inhibition of proteasomal chymotryptic activity (in words): 2 h; for IC50: Suc-LLVY-AMC, 2 h at 37° C., read-out: IC50, inhibition of proteasomal chymotrypsin-like activity
T1 sequence (G1T4Q9 60-263): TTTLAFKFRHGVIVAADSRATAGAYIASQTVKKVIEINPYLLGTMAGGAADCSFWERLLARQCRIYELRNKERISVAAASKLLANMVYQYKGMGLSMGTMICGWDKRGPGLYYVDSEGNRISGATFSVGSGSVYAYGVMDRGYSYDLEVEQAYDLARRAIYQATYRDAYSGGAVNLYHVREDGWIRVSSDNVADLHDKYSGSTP
Excerpt: EGCG was used as a comparative standard. Materials. Purified rabbit 20S proteasome and fluorogenic substrate Suc-LLVY-AMC for the proteasomal chymotrypsinlike (CT-like) activity were obtained from Calbiochem Inc. (San Diego, Calif.). Fetal bovine serum (FBS) was from Tissue Culture Biologicals (Tulare, Calif.). Penicillin and streptomycin were purchased from Invitrogen Co. (Carlsbad, Calif.). RPMI 1640 medium was purchased from Invitrogen Co. (Carlsbad, Calif.). […] Inhibition of purified 20S proteasome activity by EGCG and its analogs.

cancer cell lines = conditions: a number of cancer cell lines; cited from earlier work
[2] = test system: human multiple myeloma ARP cells; assay: MTT assay in multiple myeloma ARP cells, alone or combined with Velcade; assay type: cell-based; conditions: 48 hrs; for effect on cell proliferation in combination with bortezomib (in words): 20 μM with varying doses of Velcade; for inhibition of cell proliferation as single agent (in words): ARP cells
Description: The cells were treated with Velcade alone or with 20 μM of compounds 5, 7 and 23 or in combination with varying doses of Velcade for 48 hrs, followed by a MTT assay.
Deep purple color indicates fully viable cells; light purple color indicates a reduced number of viable cells; and yellowish color indicates an absence of viable cells.
MTT assay. Cells were grown in a 96-well plate. Triplicate wells of cells were treated with indicated concentrations of EGCG or EGCG analogs for 24 h. After aspiration of medium, MTT (1 mg/ml) was then added to the cell cultures, followed by incubation for 3 h at 37° C. After cells were crystallized, MTT was removed and DMSO was added to dissolve the metabolized MTT product. The absorbance was then measured on a Wallac Victor3 1420 Multi-label counter at 540 nm.

For `CC(=O)Oc1cc(OC(C)=O)c2c(c1)O[C@H](c1cc(OC(C)=O)c(OC(C)=O)c(OC(C)=O)c1)[C@H](OC(=O)c1cc(OC(C)=O)c(OC(C)=O)c(OC(C)=O)c1)C2` [Compound 4, (−)Epigallocatechin gallate octa acetate, reference compound], which “inhibition of proteasomal chymotryptic activity (in words)” value [1] is on record?
The value was “none of the resulting derivatives 4, 6, 8, 17 and 22 exhibited proteasomal inhibition”.

What about the “growth inhibitory activity compared to EGCG (1) (in words)” value (cancer cell lines) of the same compound?
Its value is “enhanced growth inhibitory activity”.

Which “effect on cell proliferation in combination with bortezomib (in words)” value [2] does the source give for `O=C(O[C@H]1Cc2ccccc2C[C@H]1OC(=O)c1cc(O)c(O)c(O)c1)c1cc(O)c(O)c(O)c1` [Compound 5] here?
Its value is “interfered with; also recorded: partially block the inhibitory effect of bortezomib”.

And the IC50 [1]?
Its IC50 is 19 µM.

Which “inhibition of proteasomal chymotryptic activity (in words)” value [1] does the source give for `CC(=O)Oc1cc(C(=O)O[C@H]2Cc3ccccc3C[C@H]2OC(C)=O)cc(OC(C)=O)c1OC(C)=O` [Compound 17] here?
The value was “none of the resulting derivatives 4, 6, 8, 17 and 22 exhibited proteasomal inhibition”.

Which “inhibition of proteasomal chymotryptic activity (in words)” value [1] does the source give for `CC(=O)Oc1cc(OC(C)=O)cc(C(=O)O[C@H]2Cc3ccccc3C[C@H]2OC(C)=O)c1` [Compound 22] here?
Its value is “none of the resulting derivatives 4, 6, 8, 17 and 22 exhibited proteasomal inhibition”.

Which “inhibition of proteasomal chymotryptic activity (in words)” value [1] does the source give for `O=C(O[C@@H]1Cc2c(O)cc(O)cc2O[C@@H]1c1cc(O)c(O)c(O)c1)c1cc(O)c(O)c(O)c1` [EGCG, (−)Epigallocatechin gallate, reference compound] here?
The value was “potently inhibited”.

Which “effect on cell proliferation in combination with bortezomib (in words)” value [2] does the source give for `O=C(O[C@H]1Cc2ccccc2C[C@H]1OC(=O)c1cc(O)cc(O)c1)c1cc(O)cc(O)c1` [Compound 7] here?
Its value is “synergistic inhibitory effect”.

And the “inhibition of cell proliferation as single agent (in words)” value [2]?
Its value is “most potent cell proliferation inhibitor”.

And the IC50 [1]?
Its IC50 is 29 µM.

For `CC(C)C[C@H](NC(=O)[C@H](Cc1ccccc1)NC(=O)c1cnccn1)B(O)O` [bortezomib, reference compound], which “inhibition of cell proliferation as single agent (in words)” value [2] is on record?
The value was “reduced cell proliferation in a dose-dependent manner”.

Reference: patent US20110152210A1, “POLYPHENOL COMPOUNDS FOR INHIBITING PROTEASOME AND USES THEREOF” (THE ROYAL INSTITUTION FOR THE ADVANCEMENT OF …, priority 2009, published 2011)
